This is an account of results in US20160100572A1, “Enhancement Of Insecticides Against Codling Moth (Lepidoptera: Tortricidae) With L-Aspartate” (priority 2014, published 2016).

The conditions of data set [1]: addition of 0.1% Coax; cited from earlier work.
For data set [2], the system named is fourth-instar larvae of Spodoptera littoralis. As to conditions: fed artificial diet; cited from earlier work.
Data set [3] deals with fourth-instar larvae of Heliothis virescens. As to conditions: fed artificial diet; cited from earlier work.
For data set [4], the system named is codling moth neonates. As to conditions: earlier studies, cited from earlier work.
Data set [5] concerns Spodoptera frugiperda. As to conditions: Nu-Lure, Coax or Konsume, concentrations as high as 10%; cited from earlier work.
For data set [6], the system named is codling moth neonates. Briefly: Foliage consumption on foliage treated with LC30 of insecticide alone or with L-aspartate. It is filed as in vivo, Cydia pomonella. As to conditions: LC30 of insecticide alone or with 1 mg/ml L-aspartate, 24 hours.
For data set [7], the system named is codling moth larvae. The data set can be described thus: Insecticide enhancement with L-aspartate: field trials, fruit damage. The format is in vivo, Cydia pomonella. As to conditions: for fruit damage reduced by: L-aspartate added to insecticides.
Procedure: Field trials were performed in 2010, 2011, and 2012 in a research orchard at the Missouri State Fruit Experiment Station in Mountain Grove, Mo. […] A 1-hectare apple research block was set up for the research. […] To combat these pests and diseases, the block was treated with a standard program of fungicides and insecticides alone or with addition of L-aspartate. An untreated 0.5-hectare refuge for the lepidopteran pests consisting of apple trees that were not treated with fungicides or insecticides was set up on the periphery of the block to provide moderate pressure from the pests, including codling moth.
The same experimental routine was followed each year. Apple trees of Stark Gala variety on M7A rootstock were used in fully randomized design for eight replicates and three treatments (a given insecticide alone, L-aspartate in combination with a given insecticide, and untreated control). Codling moth populations in experimental plots were monitored using delta traps baited with 0.16% codlemone (8E,10E-dodecadien-1-ol). Whenever a weekly count of codling moth males in the traps reached or exceeded five males per trap, an insecticide was applied within the next 1-2 days.
For each replicate, one tree received a spray with an insecticide tank-mixed with L-aspartate. Concentration of L-aspartate was 211 g/100 liters, which corresponded to 395 g/ha. Next, one tree in each replicate was sprayed with the respective insecticide only. Surf-Ac 820 (2.1 kg/ha, 50 g/100 liters) was used as a surfactant in either spray with L-aspartate-insecticide combination or with the respective insecticide only. In addition, one tree in each replicate was left untreated.
Sprays (at delivery rate=4673 liters/ha) were performed using a custom-made motorized handgun sprayer with nine separate tanks (Friend Manufacturing Corporation, Gasport, N.Y.) capable of sending the spray precisely into canopy of height up to 4 meters. To minimize spray drift, a tarpaulin screen was used.
Each year, 200 apples were sampled from each experimental trees treated with insecticide-L-asparate combination, each control tree (treated with insecticides only), and from each untreated tree. One hundred apples per tree were collected 2 weeks after the first flight of codling moth (May 2010, early June in 2011, and May 2012). Remaining apples (100 per tree) were collected at harvest (August in 2010 and 2011 and July in 2012). […] Briefly, 33-34 apples were collected from each of three zones within the canopy (close to the trunk, from the middle of the distance in between the trunk and the tips of the branches, and from the outside portion of the canopy to within 10-15 cm inside). Each time a vertical area from the bottom to the top of the canopy was randomly sampled in a circuitous design around the tree. The apples were immediately weighed and inspected for damage in the laboratory. Once damage was found, the fruit was carefully fragmented with a paring knife, and internal fruit feeders (in some fruits larvae of oriental fruit moth were found) were collected and examined under a stereomicroscope. Codling moth larvae were discriminated from oriental fruit moth larvae by absence of anal comb (Il'ichev et al. 2006). […] Apple weight was expressed as average±SEM weight. Damage was expressed as average±SEM percentage of sampled fruit that was infected by codling moth larvae.
Data set [8] relates to codling moth neonates. The data set can be described thus: Feeding stimulation by L-aspartate on treated apple leaf sections. The format is in vivo, Cydia pomonella. As for the experimental part: (§1) Codling moth adults (C. pomonella) were obtained from the U.S. Department of Agriculture Research Service (USDAD ARS) at Yakima, Wash. The moths were kept at 25° C., 70-80% relative humidity, and a photoperiod of 16:8 (L:D) h. Polyethylene foil was provided as an oviposition surface. […] In all experiments, 0.5-1 hour posthatch neonates were used.
Feeding Stimulation by L-Aspartate. The feeding behavior of test larvae was assessed on apple leaf sections treated with L-aspartate solutions, and by a quantitative analysis of the amounts of leaf tissue ingested. Briefly, L-aspartate was dissolved in 0.02% Triton X-100 in distilled water, and the following concentrations were used for treatment of experimental sections: 0.01, 0.1, and 1 mg/ml. Control leaves were treated with the 0.02% aqueous Triton X-100 only. Circular sections of uniform size (12 mm in diameter) were removed from Honeycrisp (U.S. Pat. No. 7,197) foliage, avoiding the leaf rib area. Test solutions (10 μl) were distributed over the upper surface of the excised sections that subsequently were allowed to air-dry. […] Treated sections were placed in bioassay stations and each section was infested with one neonate larva. The surface area of each leaf disc that was consumed was determined using a stereomicroscope equipped with an ocular square mesh reference scale (No. 12-561-RG2; Fisher, Pittsburgh, Pa.). Thirty-three fragments of leaves, chosen randomly from […] of the leaves, were also measured visually and then dried and weighed to establish a relationship between optical measurement and weight of foliage consumed. Based on this determination, consumed areas of the leaf were converted to an estimated dry weight of leaf tissue.
Thirty to forty neonate larvae were tested individually to each concentration of L-aspartate. The amount of leaf tissue consumed by neonates was estimated 3 and 24 hours after infestation of each bioassay station, and was expressed as average (mean±SEM) leaf consumption.

In data set [9] the test system is codling moth neonates. The format is in vivo. As to conditions: addition of 1 mg/ml L-aspartate; LC50 alone divided by LC50 with L-aspartate. As for the experimental part:
as §1

Data set [10] deals with Drosophila N-methyl-D-aspartate (NMDA) receptors. To be noted: excitation of receptors; cited from earlier work.
For data set [11], the system named is codling moth neonates. To be noted: cited from earlier work.
Data set [12] deals with neonates of Choristoneura rosaceana. To be noted: 24 hours, concentrations as low as 0.6 ppm (AI); cited from earlier work.
Data set [13] deals with codling moth neonates. As to conditions: residues on artificial diet surface; cited from earlier work.

Read-outs that look alike come from different tables or passages of the source.

With `CC1(C)[C@H](C(=O)O[C@H](C#N)c2cccc(Oc3ccccc3)c2)[C@@H]1C=C(Br)Br` [delthamethrin], the “toxicity increased (times)” value in data set [1] is reported as 11.3 times.

Turning to `CC1(C)C(C=C(Cl)Cl)C1C(=O)OC(C#N)c1ccc(F)c(Oc2ccccc2)c1` (stereo not drawn) [β-cyfluthrin], the figures for the LC50 in data set [2] and in [3] were 0.1 μg/g of diet and 3.1 μg/g of diet, respectively.

Regarding `N[C@@H](CCC(=O)O)C(=O)[O-].[Na+]` [monosodium glutamate], the “concentration at which food consumption increased” value in data set [4] (3-hour assays) is 0.03 mg/mL. Also, in [4] (24-hour assays), the “effective concentration increasing food consumption” value is 0.05 mg/mL.

On to `CCc1ccc(C(=O)NN(C(=O)c2cc(C)cc(C)c2)C(C)(C)C)cc1` [tebufenoside], for which, in data set [5], the “mortality on adding phagostimulants” value is reported as “unable to significantly increase mortality”.

As to `N[C@@H](CC(=O)O)C(=O)O` [L-aspartate, L-Aspartic acid], in data set [6], the foliage consumption result is reported as “maintained its feeding stimulatory properties even in the presence of each insecticide”. For the same compound, the “fruit damage by first-generation neonates after addition of L-aspartate to insecticide sprays” value in data set [7] (2010) is less than 1%; in [7] (2011), 1.2%; in data set [7] (2012) it was 1%. Also, the figures for the “fruit damage reduced by” value in data set [7] (first generation) and in [7] (second generation) were 5% and 15%, respectively. For the same compound, the “concentration at which food consumption increased” value in data set [8] (3-hour assays) was found to be 1 mg/mL. In [8] (24-hour assays), the “lowest effective concentration increasing food consumption” value was 0.1 mg/mL. Further, the “increased foliage consumption in comparison with control” value in data set [8] (3 hours, 1 mg/ml L-aspartate) is recorded as “approximately 60%”; in data set [8] (24 hours, 0.1 mg/ml L-aspartate), “approximately 30%”; in [8] (24 hours, 1 mg/ml L-aspartate) it was “approximately 40%”. In addition, in data set [9], the “efficacy increased by a factor (enhancement ratio)” value was “approximately 10”. Further, the “potency relative to glutamate” value in data set [10] was “about five times less potent than glutamate”.

Regarding `CC1(C)C(C=C(Cl)Cl)C1C(=O)OC(C#N)c1cccc(Oc2ccccc2)c1` (stereo not shown) [cypermethrin], the “toxicity increased (times)” value in data set [1] is 2.4 times.

Consider `NC1(C(=O)O)CC(C(=O)O)C1` (stereo not drawn) [trans-ACBD], for which the “reduction of insecticide active ingredient without sacrificing efficacy” value in data set [11] (in vivo) was greater than 50%.

With `O=C(NC(=O)c1c(F)cccc1F)Nc1ccc(Cl)cc1` [diβubenzuron], the “mortality on adding phagostimulants” value in data set [5] is given as “unable to significantly increase mortality”.

On to spinosad, for which the efficacy enhancement result in data set [11] (addition of trans-ACBD) is listed as “enhanced almost two times”.

What is called mortality is the percentage killed. Take spinetoram: the mortality in data set [12] is reported as 100%.

With `C/C(=N\C#N)N(C)Cc1ccc(Cl)nc1` [acetamiprid], the “LC50 with 95% confidence” value in [13] is listed as 1.35 to 2.06 mg (AI)/liter.
